In patent publication US12263155B2, “Combinations of monoamine oxidase inhibitors and serotonin receptor agonists and their therapeutic use” (Remedi, Inc., priority 2022, dated 2025):
“And” between values parts separate entries of the source, which are not always exact repeats. Equal entries are not always repeated. “Also recorded” adds a separate entry of the source.

Target: T1, brain MAO-A (Rattus norvegicus, UniProt P21396)
T1 construct: prepared from brain homogenates of male Sprague-Dawley rats, served as the source of MAO-A enzymatic activity; from tissue
T1 sequence (P21396 1-526): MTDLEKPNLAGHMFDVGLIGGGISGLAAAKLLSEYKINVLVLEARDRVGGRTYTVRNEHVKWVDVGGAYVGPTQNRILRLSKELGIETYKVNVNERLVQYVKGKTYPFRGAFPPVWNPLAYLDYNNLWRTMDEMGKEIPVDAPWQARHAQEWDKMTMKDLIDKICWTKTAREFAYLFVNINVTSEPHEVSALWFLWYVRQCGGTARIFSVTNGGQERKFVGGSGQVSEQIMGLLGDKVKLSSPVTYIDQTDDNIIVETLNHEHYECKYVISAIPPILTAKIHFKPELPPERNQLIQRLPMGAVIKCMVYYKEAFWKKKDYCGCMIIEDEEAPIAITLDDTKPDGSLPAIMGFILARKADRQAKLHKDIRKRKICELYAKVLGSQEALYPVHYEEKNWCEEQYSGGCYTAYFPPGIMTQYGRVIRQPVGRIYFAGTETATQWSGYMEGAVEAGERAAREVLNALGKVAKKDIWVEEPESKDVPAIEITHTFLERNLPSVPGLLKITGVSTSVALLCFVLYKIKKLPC
Test: Ex vivo brain MAO-A activity after oral CX157 in rats
Parameters: mean brain MAO-A activity (Avg.) / brain MAO-A activity, single experimental day: unit not given here
Details: for mean brain MAO-A activity (Avg.): average of 4 days
Experimental: Methods: Sprague-Dawley male rats (average weight of 190 g) were segregated into three groups for testing of the effects of CX157 on brain MAO-A enzyme activity. The three groups consisted of animals who received either 1, 5, and 10 mg/kg of CX157. Each group consisted of twenty-four subjects. Test animals were administered the doses of CX157 orally, by the gavage method in accordance with White & Scates, Drug Dev Res. 1992; 25:191-199.
In each drug group, four animals were sacrificed at each time period (0, 2, 4, 8, 18 and 24 hours) on four different days following drug administration. Brains were removed from the animal, bisected, frozen immediately on dry ice and placed in a −80° C. freezer. Trunk blood was collected in tubes containing sodium heparin and centrifuged at 5000 rpm for 10 minutes at 4° C. to extract the plasma. The frozen brain samples were thawed, weighed, and homogenized (3:1 tissue weight/buffer volume) in 0.25 M sucrose, containing 50 mM KHPO4(pH 7.4), with a Teflon glass homogenizer. Deprenyl HCl (at a final concentration of 100 nM) was added to each sample of homogenate to block MAO-B enzyme activity. A volume of 400 μl of homogenate was pipetted into each assay tube. A 50 μl volume of 500 μM [^14C]-5HT (specific activity of 1.6 Curies/mmol) was added to each assay tube to give a final concentration of […]. Blank assay tubes (included to correct for nonspecific deamination of [^14C]-5HT) also contained 50 μl of RO-41-1049, while total activity assay tubes (specific and nonspecific deaminating activity) contained 50 μl of buffer. The final concentration of RO-41-1049 in the blank activity tubes was 100 μM. This yielded a total assay volume of 500 μl. All assays were incubated for 7.5 minutes at 37° C. The reaction was terminated by the addition of 500 μl of 2 M citric acid. The deaminated [^14C]-5HT metabolite was extracted into a liquid scintillation fluor mixture of xylene/ethyl acetate and 0.4% PPO and quantified using a liquid scintillation spectrometer.
The specific activity of MAO-A in each of the samples was determined by subtraction of the values obtained in the nonspecific tubes from those in the total activity tubes. Methylcellulose was prepared by weighing 17.5 grams in a weigh boat on a Mettler balance and poured into a 4 liter flask. Two liters of distilled water was added to the 4 liter flask. The mixture was placed on a stir plate/hot plate and stirred overnight (for 24 hours) until completely dissolved. After the methylcellulose dissolved, distilled water was added until the volume in the flask reached 3.5 liters. The CX157 was prepared in a 0.5% methylcellulose/Tween 80 mixture to obtain the following dosages 1, 5, and 10 mg/kg. Initially, 52 mg of CX157 was placed in a 7 ml amber vial. A volume of 52 μl of Tween 80 was added to the amber vial containing CX157. A volume of 5.2 ml of methylcellulose was added to this vial to yield a solution of 10 mg/ml; this solution was used to deliver the 10 mg/kg dose. For the 5 mg/kg dose, a 5 mg/ml solution was prepared as follows; a volume of 1 ml of 10 mg/ml stock was mixed with 1 ml of methylcellulose and sonicated until mixed thoroughly. For the 1 mg/kg dose, a 1:10 dilution of the stock dose of 10 mg/ml was performed by pipetting 0.5 ml of 10 mg/ml stock into an amber vial with an addition of 4.5 ml of methylcellulose followed by sonication to disperse the drug into solution. All drugs were then administered on a 1 ml/kg basis with an average volume of 200 μl.

SMILES: O=S1(=O)c2ccc(F)cc2Oc2cc(OCC(F)(F)F)ccc21 [CX157, 3-fluoro-7(2,2,2-trifluorethoxy)phenoxathiine-10,10-dioxide]
- brain MAO-A activity, % Baseline (1 mg/kg oral table, 0 h (baseline)): 100%
- Mean brain MAO-A activity (1 mg/kg oral table, 0 h (pooled baseline, N=12)): 4002.0 DPM
- mean brain MAO-A activity (Avg.) (1 mg/kg oral, 0 h): 3636
- Mean brain MAO-A activity (1 mg/kg oral, 2 h): 2777.5 DPM
- brain MAO-A activity, % Baseline (1 mg/kg oral, 2 h): 69%
- mean brain MAO-A activity (Avg.) (1 mg/kg oral, 2 h): 2778
- Mean brain MAO-A activity (1 mg/kg oral, 4 h): 3023.3 DPM
- brain MAO-A activity, % Baseline (1 mg/kg oral, 4 h): 76%
- mean brain MAO-A activity (Avg.) (1 mg/kg oral, 4 h): 3023
- Mean brain MAO-A activity (1 mg/kg oral, 8 h): 5120.8 DPM
- brain MAO-A activity, % Baseline (1 mg/kg oral, 8 h): 128%
- mean brain MAO-A activity (Avg.) (1 mg/kg oral, 8 h): 5121
- Mean brain MAO-A activity (1 mg/kg oral, 18 h): 3993.0 DPM
- brain MAO-A activity, % Baseline (1 mg/kg oral, 18 h): 100%
- brain MAO-A activity, single experimental day (1 mg/kg oral, 18 h, Day #1-#4, 1 mg/kg): 5071 and 5019 and 3071 and 2811
- mean brain MAO-A activity (Avg.) (1 mg/kg oral, 18 h): 3993
- Mean brain MAO-A activity (1 mg/kg oral, 24 h): 4883.0 DPM
- brain MAO-A activity, % Baseline (1 mg/kg oral, 24 h): 122%
- mean brain MAO-A activity (Avg.) (1 mg/kg oral, 24 h): 4883
- brain MAO-A activity, % Baseline (5 mg/kg oral table, 0 h (baseline)): 100%
- Mean brain MAO-A activity (5 mg/kg oral table, 0 h (pooled baseline, N=12)): 4002.0 DPM
- brain MAO-A activity, single experimental day (5 mg/kg oral, 0 h, Day #1-#4, 5 mg/kg): 5661 and 5499 and 3070 and 3687
- mean brain MAO-A activity (Avg.) (5 mg/kg oral, 0 h): 4479
- Mean brain MAO-A activity (5 mg/kg oral, 2 h): 1495.5 DPM
- brain MAO-A activity, % Baseline (5 mg/kg oral, 2 h): 37%
- mean brain MAO-A activity (Avg.) (5 mg/kg oral, 2 h): 1496
- Mean brain MAO-A activity (5 mg/kg oral, 4 h): 2298.0 DPM
- brain MAO-A activity, % Baseline (5 mg/kg oral, 4 h): 57%
- mean brain MAO-A activity (Avg.) (5 mg/kg oral, 4 h): 2298
- Mean brain MAO-A activity (5 mg/kg oral, 8 h): 1365.5 DPM
- brain MAO-A activity, % Baseline (5 mg/kg oral, 8 h): 34%
- mean brain MAO-A activity (Avg.) (5 mg/kg oral, 8 h): 1366
- Mean brain MAO-A activity (5 mg/kg oral, 18 h): 2818.5 DPM
- brain MAO-A activity, % Baseline (5 mg/kg oral, 18 h): 70%
- mean brain MAO-A activity (Avg.) (5 mg/kg oral, 18 h): 2818
- Mean brain MAO-A activity (5 mg/kg oral, 24 h): 3442.5 DPM
- brain MAO-A activity, % Baseline (5 mg/kg oral, 24 h): 86%
- mean brain MAO-A activity (Avg.) (5 mg/kg oral, 24 h): 3443
- brain MAO-A activity, % Baseline (10 mg/kg oral table, 0 h (baseline)): 100%
- Mean brain MAO-A activity (10 mg/kg oral table, 0 h (pooled baseline, N=12)): 4002.0 DPM
- mean brain MAO-A activity (Avg.) (10 mg/kg oral, 0 h): 3889
- Mean brain MAO-A activity (10 mg/kg oral, 2 h): 3805.8 DPM
- brain MAO-A activity, % Baseline (10 mg/kg oral, 2 h): 95%
- mean brain MAO-A activity (Avg.) (10 mg/kg oral, 2 h): 3806
- Mean brain MAO-A activity (10 mg/kg oral, 4 h): 1893.5 DPM
- brain MAO-A activity, % Baseline (10 mg/kg oral, 4 h): 47%
- mean brain MAO-A activity (Avg.) (10 mg/kg oral, 4 h): 1894
- Mean brain MAO-A activity (10 mg/kg oral, 8 h): 1034.5 DPM
- brain MAO-A activity, % Baseline (10 mg/kg oral, 8 h): 26%
- mean brain MAO-A activity (Avg.) (10 mg/kg oral, 8 h): 1035
- Mean brain MAO-A activity (10 mg/kg oral, 18 h): 2149.8 DPM
- brain MAO-A activity, % Baseline (10 mg/kg oral, 18 h): 54%
- mean brain MAO-A activity (Avg.) (10 mg/kg oral, 18 h): 2150
- Mean brain MAO-A activity (10 mg/kg oral, 24 h): 1711.8 DPM
- brain MAO-A activity, % Baseline (10 mg/kg oral, 24 h): 43%
- mean brain MAO-A activity (Avg.) (10 mg/kg oral, 24 h): 1712
- inhibition of brain MAO-A enzyme activity after oral administration (oral 1, 5, 10 mg/kg): dose and time dependent manner; also recorded: dose-dependent and reversible fashion
